Two molecules from patent US12227500B2, “Substituted pyrrolo[2,3-b]pyridines for suppressing toxic endoplasmic reticulum stress” (THE TRUSTEES OF COLUMBIA UNIVERSITY IN THE CITY OF NEW YORK, priority 2018, dated 2025) can be followed below.

Holding throughout (assay): Radiolabeled ATP kinase assay, panel of 371 kinases (Table S6)
Holding throughout (assay type): biochemical

Experiment [1] addresses T1, panel of 371 human kinases (Homo sapiens, UniProt P21709).
T1 construct: purchased Reaction Biology Corp
To be noted: EPHA1; 0.1 μM; 10 μM ATP; read-out: % Enzyme Activity (relative to DMSO controls). From the text:
(§1) ; FIG. 38C). […]. Further targeted analyses, such as genetic knock-down or knock-out, may be warranted to parse the role of these additional kinases in our model of neurodegeneration.

In experiment [2] the target is T2, panel of 371 human kinases (Homo sapiens, UniProt Q9NYY3).
T2 construct: purchased Reaction Biology Corp
To be noted: PLK2; 0.1 μM; 10 μM ATP; read-out: % Enzyme Activity (relative to DMSO controls).
Source text: as §1

In experiment [3] the target is T3, panel of 371 human kinases (Homo sapiens, UniProt P78368).
T3 construct: purchased Reaction Biology Corp
T3 sequence (P78368 whole entry): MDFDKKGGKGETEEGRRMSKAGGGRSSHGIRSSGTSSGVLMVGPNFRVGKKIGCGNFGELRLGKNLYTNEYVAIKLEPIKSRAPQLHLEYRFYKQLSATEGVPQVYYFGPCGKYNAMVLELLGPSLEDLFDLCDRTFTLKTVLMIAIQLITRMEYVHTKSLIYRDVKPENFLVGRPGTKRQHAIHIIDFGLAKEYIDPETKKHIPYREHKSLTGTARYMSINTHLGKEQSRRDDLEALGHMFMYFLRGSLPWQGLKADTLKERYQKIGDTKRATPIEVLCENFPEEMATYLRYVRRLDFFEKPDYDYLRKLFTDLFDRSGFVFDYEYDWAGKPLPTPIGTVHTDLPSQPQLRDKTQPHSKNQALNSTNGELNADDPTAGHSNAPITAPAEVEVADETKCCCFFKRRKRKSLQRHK
To be noted: CK1g2; 0.1 μM; 10 μM ATP; read-out: % Enzyme Activity (relative to DMSO controls).
Source text: as §1

The target in experiment [4] is T4, panel of 371 human kinases (Homo sapiens, UniProt Q9H4B4).
T4 construct: purchased Reaction Biology Corp
Conditions: PLK3; 0.1 μM; 10 μM ATP; read-out: % Enzyme Activity (relative to DMSO controls).
Source text: as §1

Experiment [5] deals with T5, panel of 371 human kinases (Homo sapiens, UniProt Q13464).
T5 construct: purchased Reaction Biology Corp
To be noted: ROCK1; 0.1 μM; 10 μM ATP; read-out: % Enzyme Activity (relative to DMSO controls).
Source text: as §1

Experiment [6] has as its target T6, panel of 371 human kinases (Homo sapiens, UniProt O94804).
T6 construct: purchased Reaction Biology Corp
Conditions: LOK/STK10; 0.1 μM; 10 μM ATP; read-out: % Enzyme Activity (relative to DMSO controls).
Source text: as §1

Experiment [7] has as its target T7, panel of 371 human kinases (Homo sapiens, UniProt P51957).
T7 construct: purchased Reaction Biology Corp
To be noted: NEK4; 0.1 μM; 10 μM ATP; read-out: % Enzyme Activity (relative to DMSO controls).
Source text: as §1

Experiment [8] concerns the target T8, panel of 371 human kinases (Homo sapiens, UniProt O00311).
T8 construct: purchased Reaction Biology Corp
To be noted: CDC7/DBF4; 0.1 μM; 10 μM ATP; read-out: % Enzyme Activity (relative to DMSO controls).
Source text: as §1

Experiment [9] has as its target T9, panel of 371 human kinases (Homo sapiens, UniProt Q9UEE5).
T9 construct: purchased Reaction Biology Corp
To be noted: DRAK1/STK17A; 0.1 μM; 10 μM ATP; read-out: % Enzyme Activity (relative to DMSO controls).
Source text: as §1

Experiment [10] has as its target T10, panel of 371 human kinases (Homo sapiens, UniProt Q96RG2).
T10 construct: purchased Reaction Biology Corp
To be noted: PASK; 0.1 μM; 10 μM ATP; read-out: % Enzyme Activity (relative to DMSO controls).
Source text: as §1

Experiment [11] deals with T11, panel of 371 human kinases (Homo sapiens, UniProt Q9HC98).
T11 construct: purchased Reaction Biology Corp
T11 sequence (Q9HC98 whole entry): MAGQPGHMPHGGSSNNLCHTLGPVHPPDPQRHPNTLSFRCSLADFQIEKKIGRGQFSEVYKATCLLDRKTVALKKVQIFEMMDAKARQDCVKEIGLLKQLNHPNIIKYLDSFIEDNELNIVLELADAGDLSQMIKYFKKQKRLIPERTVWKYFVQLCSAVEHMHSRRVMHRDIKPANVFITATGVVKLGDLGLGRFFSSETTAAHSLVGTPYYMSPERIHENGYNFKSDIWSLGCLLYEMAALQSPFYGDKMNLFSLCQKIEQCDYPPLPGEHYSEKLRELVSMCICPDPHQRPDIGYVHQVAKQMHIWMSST
Conditions: NEK6; 0.1 μM; 10 μM ATP; read-out: % Enzyme Activity (relative to DMSO controls).
Source text: as §1

Experiment [12] has as its target T12, panel of 371 human kinases (Homo sapiens, UniProt P16234).
T12 construct: purchased Reaction Biology Corp
Conditions: PDGFRa; 0.1 μM; 10 μM ATP; read-out: % Enzyme Activity (relative to DMSO controls).
Source text: as §1

Experiment [13] addresses T13, panel of 371 human kinases (Homo sapiens, UniProt Q32MK0).
T13 construct: purchased Reaction Biology Corp
To be noted: MYLK3; 0.1 μM; 10 μM ATP; read-out: % Enzyme Activity (relative to DMSO controls).
Source text: as §1

The target in experiment [14] is T14, panel of 371 human kinases (Homo sapiens, UniProt P49674).
T14 construct: purchased Reaction Biology Corp
T14 sequence (P49674 whole entry): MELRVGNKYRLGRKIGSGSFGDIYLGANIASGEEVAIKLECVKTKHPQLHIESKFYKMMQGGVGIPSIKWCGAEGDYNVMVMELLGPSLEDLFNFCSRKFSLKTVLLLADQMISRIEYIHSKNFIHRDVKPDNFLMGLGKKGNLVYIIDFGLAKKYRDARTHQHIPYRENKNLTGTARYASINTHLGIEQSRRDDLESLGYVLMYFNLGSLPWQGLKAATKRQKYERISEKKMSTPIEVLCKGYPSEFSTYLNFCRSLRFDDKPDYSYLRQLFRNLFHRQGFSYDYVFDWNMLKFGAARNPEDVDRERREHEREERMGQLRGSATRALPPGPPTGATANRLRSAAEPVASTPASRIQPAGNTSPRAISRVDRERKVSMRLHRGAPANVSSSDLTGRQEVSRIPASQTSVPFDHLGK
Conditions: CK1epsilon; 0.1 μM; 10 μM ATP; read-out: % Enzyme Activity (relative to DMSO controls).
Source text: as §1

For experiment [15], the target named is T15, panel of 371 human kinases (Homo sapiens, UniProt Q9BXA7).
T15 construct: purchased Reaction Biology Corp
Conditions: STK22D/TSSK1; 0.1 μM; 10 μM ATP; read-out: % Enzyme Activity (relative to DMSO controls).
Source text: as §1

Experiment [16] has as its target T16, panel of 371 human kinases (Homo sapiens, UniProt P29317).
T16 construct: purchased Reaction Biology Corp
Conditions: EPHA2; 0.1 μM; 10 μM ATP; read-out: % Enzyme Activity (relative to DMSO controls).
Source text: as §1

The target in experiment [17] is T17, panel of 371 human kinases (Homo sapiens, UniProt P49760).
T17 construct: purchased Reaction Biology Corp
Conditions: CLK2; 0.1 μM; 10 μM ATP; read-out: % Enzyme Activity (relative to DMSO controls).
Source text: as §1

Experiment [18] deals with T18, panel of 371 human kinases (Homo sapiens, UniProt Q8IU85).
T18 construct: purchased Reaction Biology Corp
T18 sequence (Q8IU85 whole entry): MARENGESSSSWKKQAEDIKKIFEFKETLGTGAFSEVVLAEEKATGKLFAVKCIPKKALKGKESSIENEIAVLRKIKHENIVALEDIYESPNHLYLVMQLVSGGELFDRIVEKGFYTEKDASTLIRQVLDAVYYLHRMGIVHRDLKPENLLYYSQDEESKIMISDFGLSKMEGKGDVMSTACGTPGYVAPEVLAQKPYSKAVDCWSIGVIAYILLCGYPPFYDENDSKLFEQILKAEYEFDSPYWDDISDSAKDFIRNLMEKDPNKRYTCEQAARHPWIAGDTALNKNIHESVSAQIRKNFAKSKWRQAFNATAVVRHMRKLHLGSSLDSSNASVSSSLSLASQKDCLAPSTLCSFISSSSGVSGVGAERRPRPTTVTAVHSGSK
To be noted: CAMK1d; 0.1 μM; 10 μM ATP; read-out: % Enzyme Activity (relative to DMSO controls).
Source text: as §1

The target of experiment [19] is T19, panel of 371 human kinases (Homo sapiens, UniProt Q7KZI7).
T19 construct: purchased Reaction Biology Corp
To be noted: MARK2/PAR-1Ba; 0.1 μM; 10 μM ATP; read-out: % Enzyme Activity (relative to DMSO controls).
Source text: as §1

Experiment [20] has as its target T20, panel of 371 human kinases (Homo sapiens, UniProt Q07002).
T20 construct: purchased Reaction Biology Corp
Conditions: CDK18/cyclin Y (PCTK3); 0.1 μM; 10 μM ATP; read-out: % Enzyme Activity (relative to DMSO controls).
Source text: as §1

For experiment [21], the target named is T21, panel of 371 human kinases (Homo sapiens, UniProt Q6P5Z2).
T21 construct: purchased Reaction Biology Corp
To be noted: PKN3/PRK3; 0.1 μM; 10 μM ATP; read-out: % Enzyme Activity (relative to DMSO controls).
Source text: as §1

For experiment [22], the target named is T22, panel of 371 human kinases (Homo sapiens, UniProt Q6XUX3).
T22 construct: purchased Reaction Biology Corp
T22 sequence (Q6XUX3 whole entry): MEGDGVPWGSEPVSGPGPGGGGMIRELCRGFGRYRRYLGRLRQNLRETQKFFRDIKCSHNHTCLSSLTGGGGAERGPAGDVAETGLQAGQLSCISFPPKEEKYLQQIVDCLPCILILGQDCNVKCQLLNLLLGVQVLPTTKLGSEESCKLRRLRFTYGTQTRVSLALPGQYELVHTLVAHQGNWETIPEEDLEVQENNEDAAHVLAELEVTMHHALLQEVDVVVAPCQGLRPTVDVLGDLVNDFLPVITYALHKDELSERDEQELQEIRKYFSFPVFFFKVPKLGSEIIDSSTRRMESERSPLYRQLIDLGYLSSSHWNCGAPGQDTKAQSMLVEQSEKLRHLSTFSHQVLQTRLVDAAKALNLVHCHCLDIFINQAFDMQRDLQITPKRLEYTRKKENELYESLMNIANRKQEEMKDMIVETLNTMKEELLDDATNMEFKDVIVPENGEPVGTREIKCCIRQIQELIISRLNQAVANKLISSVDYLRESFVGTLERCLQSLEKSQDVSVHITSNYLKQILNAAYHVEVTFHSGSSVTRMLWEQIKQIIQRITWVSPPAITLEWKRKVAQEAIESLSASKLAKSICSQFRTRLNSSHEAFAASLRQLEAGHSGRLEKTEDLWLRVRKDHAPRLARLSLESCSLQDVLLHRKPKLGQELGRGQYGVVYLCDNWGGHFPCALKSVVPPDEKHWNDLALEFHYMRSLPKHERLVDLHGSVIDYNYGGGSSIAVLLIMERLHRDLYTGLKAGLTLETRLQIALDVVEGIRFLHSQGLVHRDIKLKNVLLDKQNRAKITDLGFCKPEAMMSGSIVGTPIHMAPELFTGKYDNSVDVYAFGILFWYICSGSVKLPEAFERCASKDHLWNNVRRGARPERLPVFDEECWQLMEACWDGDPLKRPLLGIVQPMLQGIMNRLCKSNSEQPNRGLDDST
Conditions: RIPK5; 0.1 μM; 10 μM ATP; read-out: % Enzyme Activity (relative to DMSO controls).
Source text: as §1

In experiment [23] the target is T23, panel of 371 human kinases (Homo sapiens, UniProt Q9NR20).
T23 construct: purchased Reaction Biology Corp
To be noted: DYRK4; 0.1 μM; 10 μM ATP; read-out: % Enzyme Activity (relative to DMSO controls).
Source text: as §1

In experiment [24] the target is T24, panel of 371 human kinases (Homo sapiens, UniProt P15056).
T24 construct: purchased Reaction Biology Corp
To be noted: BRAF; 0.1 μM; 10 μM ATP; read-out: % Enzyme Activity (relative to DMSO controls).
Source text: as §1

SMILES strings stand for the structures.

T10 sequence (Q96RG2 whole entry): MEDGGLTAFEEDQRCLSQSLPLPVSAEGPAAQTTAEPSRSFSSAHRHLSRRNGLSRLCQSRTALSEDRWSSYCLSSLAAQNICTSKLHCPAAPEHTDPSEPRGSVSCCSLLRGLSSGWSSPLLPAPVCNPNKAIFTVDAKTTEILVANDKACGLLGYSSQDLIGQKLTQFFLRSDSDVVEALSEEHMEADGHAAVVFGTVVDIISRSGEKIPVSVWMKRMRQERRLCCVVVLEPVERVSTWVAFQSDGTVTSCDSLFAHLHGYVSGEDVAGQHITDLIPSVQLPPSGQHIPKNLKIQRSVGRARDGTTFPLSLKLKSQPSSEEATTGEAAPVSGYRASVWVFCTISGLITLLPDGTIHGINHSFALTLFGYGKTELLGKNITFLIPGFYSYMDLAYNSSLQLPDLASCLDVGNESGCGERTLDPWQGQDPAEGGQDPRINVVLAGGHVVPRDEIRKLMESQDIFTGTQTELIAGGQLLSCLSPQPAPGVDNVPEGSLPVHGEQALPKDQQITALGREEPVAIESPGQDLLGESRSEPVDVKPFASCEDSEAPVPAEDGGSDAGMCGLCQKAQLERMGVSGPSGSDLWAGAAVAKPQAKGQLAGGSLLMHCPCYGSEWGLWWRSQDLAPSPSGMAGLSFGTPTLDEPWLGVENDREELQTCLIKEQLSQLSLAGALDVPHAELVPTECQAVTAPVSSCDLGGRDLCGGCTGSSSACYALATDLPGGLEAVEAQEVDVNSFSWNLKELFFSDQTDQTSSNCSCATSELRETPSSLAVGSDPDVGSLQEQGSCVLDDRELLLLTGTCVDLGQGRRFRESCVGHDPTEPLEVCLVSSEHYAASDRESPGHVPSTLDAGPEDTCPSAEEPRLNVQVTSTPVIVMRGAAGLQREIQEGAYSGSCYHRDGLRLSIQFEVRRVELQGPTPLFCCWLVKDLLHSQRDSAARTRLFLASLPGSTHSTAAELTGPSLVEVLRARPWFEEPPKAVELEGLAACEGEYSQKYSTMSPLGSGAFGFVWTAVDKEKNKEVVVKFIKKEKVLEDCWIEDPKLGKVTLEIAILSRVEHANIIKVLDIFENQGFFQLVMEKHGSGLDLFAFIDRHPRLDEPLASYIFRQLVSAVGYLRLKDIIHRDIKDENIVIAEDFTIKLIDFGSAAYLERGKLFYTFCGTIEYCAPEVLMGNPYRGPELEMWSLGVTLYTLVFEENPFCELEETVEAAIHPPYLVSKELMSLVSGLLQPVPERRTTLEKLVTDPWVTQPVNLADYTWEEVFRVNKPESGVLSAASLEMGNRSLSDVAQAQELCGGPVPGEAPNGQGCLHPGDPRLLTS
T13 sequence (Q32MK0 whole entry): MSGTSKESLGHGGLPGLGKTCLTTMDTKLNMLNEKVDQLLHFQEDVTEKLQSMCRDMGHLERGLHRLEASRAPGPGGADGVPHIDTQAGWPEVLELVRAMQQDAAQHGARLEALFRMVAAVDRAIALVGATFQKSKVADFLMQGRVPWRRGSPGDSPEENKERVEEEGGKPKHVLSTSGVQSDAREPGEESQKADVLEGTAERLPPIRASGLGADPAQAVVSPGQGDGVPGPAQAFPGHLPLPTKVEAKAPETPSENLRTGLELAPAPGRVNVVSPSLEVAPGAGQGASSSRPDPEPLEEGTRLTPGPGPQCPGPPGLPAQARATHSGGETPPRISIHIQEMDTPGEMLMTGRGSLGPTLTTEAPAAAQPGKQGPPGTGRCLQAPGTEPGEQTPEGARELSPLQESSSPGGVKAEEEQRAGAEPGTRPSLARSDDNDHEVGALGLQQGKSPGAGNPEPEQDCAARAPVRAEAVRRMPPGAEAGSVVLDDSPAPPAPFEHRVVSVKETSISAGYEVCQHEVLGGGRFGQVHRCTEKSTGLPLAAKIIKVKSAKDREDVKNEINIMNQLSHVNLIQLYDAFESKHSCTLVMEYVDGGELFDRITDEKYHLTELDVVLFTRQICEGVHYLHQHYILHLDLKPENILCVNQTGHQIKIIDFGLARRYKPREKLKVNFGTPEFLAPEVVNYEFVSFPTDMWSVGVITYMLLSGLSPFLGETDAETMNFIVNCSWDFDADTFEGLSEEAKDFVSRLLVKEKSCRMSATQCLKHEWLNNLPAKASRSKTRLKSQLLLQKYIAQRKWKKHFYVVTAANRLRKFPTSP
T9 sequence (Q9UEE5 whole entry): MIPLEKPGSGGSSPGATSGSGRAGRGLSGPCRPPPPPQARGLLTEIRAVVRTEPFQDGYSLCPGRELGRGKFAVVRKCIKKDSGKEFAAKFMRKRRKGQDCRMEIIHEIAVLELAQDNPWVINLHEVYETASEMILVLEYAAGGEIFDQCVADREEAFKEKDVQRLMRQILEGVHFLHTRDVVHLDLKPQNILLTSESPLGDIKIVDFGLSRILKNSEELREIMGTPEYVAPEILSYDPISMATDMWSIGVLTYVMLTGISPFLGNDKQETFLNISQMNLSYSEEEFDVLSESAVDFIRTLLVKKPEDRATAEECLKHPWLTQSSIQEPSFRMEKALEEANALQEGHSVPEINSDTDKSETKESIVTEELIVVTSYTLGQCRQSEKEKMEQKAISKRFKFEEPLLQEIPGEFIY

For the molecule `CN1CCN(Cc2ccc(-c3cnc4[nH]cc(-c5ccc6[nH]ccc6c5)c4c3)cc2)CC1` [Compound 1, 3-(1H-Indol-5-yl)-5-(4-((4-methylpiperazin-1-yl)methyl)phenyl)-1H-pyrrolo[2,3-b]pyridine, reference compound], the remaining activity at 0.1 µM was 74.2% in [1]; 97.2% in experiment [2]; 102% in [3]; 106% in experiment [4]; 94.7% in experiment [5]; 73.2% in experiment [6]. Further, the remaining activity at 0.1 µM in experiment [7] stood at 89.8%; in [8] it was 100%; in [9], 88.7%; in experiment [10], 78%; in experiment [11], 92.7%; in experiment [12] it was 86.9%. Moreover, the remaining activity at 0.1 µM in experiment [13] was 109%; in [14] it was 117%; in [15], 87.2%; in experiment [16], 93.6%; in [17], 48.2%; in experiment [18], 101%. Also, the remaining activity at 0.1 µM in experiment [19] turned out to be 78%; in experiment [20], 90.3%; in experiment [21], 84.7%; in experiment [22], 75.6%; in experiment [23], 111%; in experiment [24] it was 105%.
On to `OCCN1CCN(Cc2ccc(-c3cnc4[nH]cc(-c5cccc(Cl)c5)c4c3)cc2)CC1` [Compound 12k, 2-(4-(4-(3-(3-Chlorophenyl)-1H-pyrrolo[2,3-b]pyridin-5-yl)benzyl)piperazin-1-yl)ethan-1-ol], for which the remaining activity at 0.1 µM came to 89.4% in experiment [1]; 101% in experiment [2]; 102% in [3]; 103% in experiment [4]; 79.2% in experiment [5]; 59.1% in [6]. In addition, the remaining activity at 0.1 µM in [7] stood at 87.4%; in [8], 98.3%; in experiment [9], 88.8%; in experiment [10], 90.1%; in experiment [11], 95.1%; in [12] it was 87.8%. Besides, the remaining activity at 0.1 µM was 96.7% in experiment [13]; 103% in experiment [14]; 75.2% in experiment [15]; 92.3% in experiment [16]; 55.8% in experiment [17]; 96.8% in experiment [18]. Further, the remaining activity at 0.1 µM is 51.7% in [19]; 77.5% in experiment [20]; 93.7% in [21]; 73.4% in [22]; 101% in experiment [23]; 98% in experiment [24].
